Experimental findings from patent publication US12433892B2, “Compositions and methods of treatment for neurological disorders comprising depression” (Gliapharm SA, priority 2018, dated 2025) are described below.

Structures can show the parent of a compound that is named as a salt.

The subject of data set [1] is C57Bl/6 mice. Briefly: Forced swim test (FST). Type of data set: in vivo, mouse. Conditions: 100 mg/kg per os, 1.5 hr. As for the experimental part: (§1) The depression mouse model features wild-type C57Bl/6 laboratory mice without any transgenic changes. To ensure that the actions of the tested molecules in the animal models of depression are not due to effects on locomotor activity or muscle strength in animals, molecules are administered to mice that are then tested in the grip strength test (GST) and in the open-field test (OFT) following the protocols described in Carrard et al. (Carrard, Elsayed, Margineanu, Boury-Jamot, Frangiere, Meylan, Petit, Fiuemlli, Magistretti and Martin. Peripheral administration of lactate produces antidepressant-like effects. Molecular Psychiatry, 2016 Oct. 18, e-pub). If alterations in muscle strength and/or locomotor activity are measured following administration drug, no further analyses are performed with this molecule.
FST is a test used to identify molecules that produce an acute antidepressant-like behavioral response.
1.5 hr after a single oral (vehicle or lactate-enhancing molecules) or intraperitoneal (vehicle, fluoxetine or despratmine) administration, mice are placed in a cylindrical container filled to a depth of 15 cm with water (23-25° C.). 6-min swim session are videotaped, and time spent immobile, which reflects the animal depressive-like behavior, is scored subsequently by an experimenter blind to the conditions used.

Data set [2] deals with astrocytes. Description: Intracellular glycogen quantification. Type of data set: cell-based, mouse. The following applies: Prestwick hits; 10 uM, 3 h.
In data set [3] the test system is cerebral extracellular lactate. Briefly: In vivo pharmacodynamics: lactate biosensors in cortex. The following applies: 10 mg/kg per os. On the set-up: species or system mouse. As for the experimental part: Extracellular levels of lactate were monitored in vivo using lactate biosensors (Pinnacle Technology), according to the manufacturer's instructions. Cannulae were surgically implanted in mice cerebral cerebral motor cortex areas M1/M2 (coordinates: +1.94 mm (to bregma), lateral −1.4 mm (to mideline), ventral −1.0 mm (to dura)) 5-7 days before administration of the compounds. Drugs were administered per os as previously described, and cerebral levels of extracellular lactate were dynamically recorded for 6 hours. Mice were administered vehicle alone first, followed 3 hours later by vehicle or drug (10 or 100 mg/kg). Area Under the Curve (AUC) quantifying the fluctuations of extracellular lactate concentrations for each of the compound tested was calculated using Graphad Prism and the ratio of AUC after drug over Vehicle administration was calculated. Groups of 8 male mice were used for each condition.
To measure biological effect of lead molecules in vivo in the brain, lactate levels were quantified after administration of the drug by using lactate biosensors implanted in the cortex of freely moving mice.

In data set [4] the test system is C57Bl/6 mice. Description: Grip strength test (GST). Type of data set: in vivo, mouse. Conditions: 100 mg/kg per os, 1.5 hr. As to the method:
as §1
GST is a test used to identify molecules that could modulate mouse grip strength, which might affect results in the FST. 1.5 hr after a single oral molecules administration, mice are placed on a grid dynamometer and the muscle strength (N) or their two front paws or all their four paws is measured in 3 consecutive sessions, and the best score is recorded.

The test system of data set [5] is C57Bl/6 male and female mice. Briefly: In vivo chronic toxicity (28 days). As to the method: During this period, clinical symptoms and weight were recorded.
Chronic toxicity was assessed.

Data set [6] concerns C57Bl/6 mice. Description: Open field test (OFT). Type of data set: in vivo, mouse. Conditions: 100 mg/kg per os, 1.5 hr. As to the method: as §1
OFT is a test used to identify molecules that could modulate mouse activity, which might affect results in the FST. 1.5 hr after a single oral molecules administration, mice are placed in a 39 cm (long)×33 cm (large)×33 cm (high) open box and their activity is videotaped for 10 minutes. Mouse activity is then automatically scored using Ethovision pro video tracking system (Noldus).

Data set [7] in a line: In vivo pharmacokinetics (PFC microdialysis and plasma). On the set-up: species or system mouse. Conditions: after gavage with 100 mg/kg. As for the experimental part:
Mice were anesthetized using isoflurane (2% and 800 mL/min O2). Before surgery, Finadyne (1 mg/kg, s.c.) was administered for analgesia during surgery and the post-surgical recovery period. A mixture of bupivacaine and epinephrine was used for local anesthesia of the incision site of the periost of the skull.
The animals were placed in a stereotaxic frame (Kopf instruments, USA). MetaQuant microdialysis probes with a 3 mm exposed polyacrylonitrile membrane (MQ-PAN 3/3, Brainlink, the Netherlands) were implanted into the prefrontal cortex (coordinates for the tip of the probe: AP=+2.0 mm (to bregma), lateral=−0.7 mm (to midline), ventral=−3.3 mm (to dura), with the incisor bar set at 0.0 mm and an angle of 8°). All coordinates were based on “The mouse brain in stereotaxic coordinates” by Paxinos and Franklin (2004). The probes were attached to the skull with a stainless steel screw and dental cement (Fuji Plus Capsules, Henry Schein, the Netherlands).
In the same surgical procedure, a catheter was placed into the jugular vein to accommodate blood sampling. An indwelling cannula was inserted into the right jugular vein, and exteriorized through an incision on top of the skull. The end of the jugular vein catheter was fixed in position with dental acrylic cement and attached to the skull with two stainless steel screws.
Experiments were initiated one day after surgery. The MetaQuant microdialysis probes were connected with flexible PEEK tubing (Western Analytical Products Inc. USA; PK005-020) to a microperfusion pump (CMA Microdialysis) and perfused with aCSF+0.2% BSA at a flow rate of 0.12 μL/min. Ultrapurified water+0.2% BSA was used as the carrier flow at a flow rate of 0.80 μL/min. After a minimum of 1.5 hours of prestabilization, microdialysis samples were collected in 30 minute intervals. Samples were collected into polystyrene microvials (Microbiotech/se AB, Sweden; 4001029) using an automated fraction collector (UV 8301501, TSE, Univentor, Malta). After collection of three basal samples, at t=0 minutes, drug of interest was administered per os. Eight additional samples were collected after compound administration. All samples were stored at −80° C. until off-line analysis.
In parallel, blood samples (50 μL) were taken from the jugular vein through the cannula. These samples were collected at specified intervals into vials containing 5 μL heparin (500 IE/mL in saline). The samples were mixed by inverting the tubes and, subsequently, centrifuged at 4000 rpm (1500×g) for 10 min at 4° C. The supernatant was stored as plasma in 1.5 mL Eppendorf vials (Sarstedt, Germany) at −80° C. until off-line analysis.
At the end of the experiment, the animals were euthanized and terminal brain tissue was collected for visual histological verification of the probe positions.
PK was measured for GP-04, GP-05, GP-07, GP-R1 and GP-P1 in the PFC (prefrontal cortex) and plasma of wild type C56Bl/6 mice by CRO Brainsonline.

The test system of data set [8] is astrocytes. Briefly: Extracellular lactate quantification. Type of data set: cell-based, mouse. On the set-up: Score_LACTATE / Score Lact.: scale not given here. The following applies: Appendix I; secondary screening, dosage of extracellular lactate. As to the method:
Primary cultures of cerebrocortical astrocytes were obtained from 1-2-day-old OF1 mouse pups (Charles River Laboratories). Briefly, cortices were isolated and minced in small pieces under a dissecting microscope. The cells were incubated for 30 min at 37° C. in a solution containing 20 U/ml of papain enzyme (Worthington Biochemical), L-cysteine 1 mM (Sigma), and 10 kU/ml DNase I (Worthington Biochemical) for an enzymatic dissociation. Papain activity was stopped by the addition of fetal calf serum (FCS) to the solution, and a single-cell suspension was then obtained by mechanical dissociation, which consisted in cells trituration in a DMEM (D7777, Sigma-Aldrich) medium (supplemented with 44 mm NaHCO3, and 10 ml/L antibiotic/antimycotic solution) containing 10% FCS. The cells were seeded at an average density of 6×10^4 cells/cm^2 in poly-D-lysine-coated 96, 12 or 6-well culture plates, depending on their use, and incubated at 37° C. in a humidified atmosphere containing 5% CO2/95% air. Culture medium was renewed twice per week. Cells were stimulated and harvested between DIV14 and DIV17, when confluence and cell growth were optimal.
Secretion of L-lactate was determined in the extracellular medium of 96-well plated astrocytes after 90 min stimulation (at 37° C., in 5% CO2/95% air conditions) with the drug of interest. The stimulation medium was composed of D5030 medium (completed with D-glucose 5 mM and 44 mM sodium bicarbonate) for 90 min in concentrations ranging from 0 to 100 μM.
Briefly, 200 μl of a Glycine (Sigma)-Semicarbazide (Acros) 0.2M pH 10 buffer containing 3 mM NAD (Roche) and LDH 14 U/ml (Roche) was added to each well of a 96-well plate containing 30 μl aliquots complemented with 20 μl fresh complete D5030 medium. Samples were incubated at 37° C. for 1 h. After samples cooled down at room temperature, the fluorescence intensity (340 nm excitation/450 nm emission) that represents the amount of NADH produced was measured, and lactate concentration values were determined from a standard curve of L-lactate.
Statistical analysis consisted in ANOVA followed by Fisher LSD post-hoc test for pair-wise comparisons.
Levels of lactate secreted by astrocytes were measured in the extracellular medium at 90 min after stimulation with hits (molecules) from the CDC54K library.

Data set [9] relates to primary astrocytes. Description: High throughput screening (HTS) for lactate secretion: acidification of extracellular medium (SNARF5). Type of data set: cell-based, mouse. Conditions: Appendix I; primary screening confirmation (SNARF5). As to the method:
Primary cultures of cerebrocortical astrocytes were obtained from 1-2-day-old OF1 mouse pups (Charles River Laboratories). Briefly, cortices were isolated and minced in small pieces under a dissecting microscope. The cells were incubated for 30 min at 37° C. in a solution containing 20 U/ml of papain enzyme (Worthington Biochemical), L-cysteine 1 mM (Sigma), and 10 kU/ml DNase I (Worthington Biochemical) for an enzymatic dissociation. […]
Secretion of lactate in a high-throughput screening (HTS) fashion was measured indirectly through the acidification of extracellular medium. […]
After 90 min stimulation, fluorescence was read at exc. […] The ratio of fluorescence between 630 nm and 580 emission values, which represents extracellular pH, was calculated.
In each plate, 8 wells were used for negative controls (DMSO) and 8 wells were used for positive controls (CCCP 2 uM in DMSO). Z prime values were calculated for each of the plates tested and values<0 were discarded.
The average and SD of compounds' values tested in duplicates were calculated, and compound was noted as HIT when the difference between compound's average and negative control's average was greater than three times the sum of compound's SD and negative controls' SD. […] Scores are calculated as the % of activity compared to the positive control in each plate (which is 100%). […]

`COc1ccc(Cc2nccc3cc(OC)c(OC)cc23)cc1OC` [Papaverine hydrochloride]: the time spent immobile entry in data set [1] was “significant reduction”. Further, the “Glycogen (statistical significance of glycogen degradation)” value in [2] was “**** (****p<0.0001)”. Further, the “cerebral lactate (AUC ratio vs vehicle)” value in [3] was “Significant increase”. For the same compound, in data set [4], the grip strength result is recorded as “does not affect”. For the same compound, in [5] (10 mg/kg per os once a day, 28 days), the “chronic toxicity (toxic or safe)” value was “safe”. Also, the pathological analysis result in data set [5] (chronic 10 mg/kg, liver, kidney) was “minor treatment-related effects”. The “activity (open field)” value in [6] is reported as “does not affect”. The “levels in the PFC” value in [7] is “at therapeutic range (100 nM to 1 uM) and sustained over several hours”.

In data set [8], `O=C(C[n+]1cc(-c2ccccc2)n2c1CCC2)c1ccc(Br)cc1.[Br-]` [T0502-5560] yielded a Score_LACTATE of 0.8524. This compound had a Score_SNARF in data set [9] of 0.8504.
